{"source": "patent US20060142271A1", "about": "“Novel lapacho compounds and methods of use thereof” (priority 2002, published 2006)", "key": {"HaCaT cells [1]": {"tested_on": "HaCaT cells", "assay": "HaCaT keratinocyte proliferation assay (cell counting)", "format": "cell-based, human", "experimental": "Anthralin, an antipsoriatic drug, was used as a positive control. Antiproliferative activity was measured directly by counting the dispersed cells under a phase-contrast microscope.\nHaCaT keratinocyte proliferation assay and LDH release were described previously in full detail (Muller et al. J. Med. Chem. 39: 3132-3138, 1996; Müller et al. J. Med. Chem. 37: 1660-1669, 1994). For the cancer cell line studies, exponentially growing cells were seeded at 1,000 cells per well in six-well plates and allowed to attach for 24 h. Compounds of the invention or β-lapachone, solubflized in DMSO, were added to the wells in micromolar concentrations. Control wells were treated with equivalent volumes of DMSO. After 4 h the supernatant was removed and fresh medium was added. Cultures were observed daily for 10-15 days and then were fixed and stained. Colonies of greater than 30 cells were scored as survivors. […]"}, "HaCaT cells [2]": {"tested_on": "HaCaT cells", "format": "cell-based, human", "experimental": "(§1) HaCaT keratinocyte proliferation assay and LDH release were described previously in full detail (Muller et al. J. Med. Chem. 39: 3132-3138, 1996; Müller et al. J. Med. Chem. 37: 1660-1669, 1994). For the cancer cell line studies, exponentially growing cells were seeded at 1,000 cells per well in six-well plates and allowed to attach for 24 h. Compounds of the invention or β-lapachone, solubflized in DMSO, were added to the wells in micromolar concentrations. Control wells were treated with equivalent volumes of DMSO. After 4 h the supernatant was removed and fresh medium was added. Cultures were observed daily for 10-15 days and then were fixed and stained. Colonies of greater than 30 cells were scored as survivors.\nThe cytotoxicity of naphthoquinones has been thought to result, at least in part, from reactive oxygen species, generated during redox cycling between the […] and reduction products (Munday, R., Free Radic. Biol. Med., 22, 689-695, 1997), which cause peroxidative damage to membrane lipids. To assess the correlation of keratinocyte growth inhibition with membrane damage, the release of lactate dehydrogenase from the treated cells was also quantitated."}, "[3]": {"tested_on": "colon cancer cell line DLD1", "assay": "Cancer cell line colony survival assay, DLD1", "format": "cell-based, human", "details": "Homo sapiens, DLD-1, read-out: AA in Cancer Cell Lines IC50 (μM) DLD1", "experimental": "as §1"}, "[4]": {"tested_on": "colon cancer cell line SW480", "assay": "Cancer cell line colony survival assay, SW480", "format": "cell-based, human", "details": "Homo sapiens, SW480, read-out: AA in Cancer Cell Lines IC50 (μM) SW480", "experimental": "as §1"}, "[5]": {"tested_on": "breast cancer cell line MCF7", "assay": "Cancer cell line colony survival assay, MCF7", "format": "cell-based, human", "details": "Homo sapiens, MCF7, read-out: AA in Cancer Cell Lines IC50 (μM) MCF7", "experimental": "as §1"}, "human cancer cell lines": {"tested_on": "human cancer cell lines", "details": "wide spectrum of human cancer cell lines; read-out: antineoplastic activity against human cancer cell lines (IC50); cited from earlier work"}, "[6]": {"tested_on": "normal fresh or proliferating human PBMC", "details": "cited from earlier work"}, "[7]": {"tested_on": "human keratinocyte cell line HaCaT", "details": "Müller et al., J. Nat. Prod. 62 (1999); cited from earlier work"}, "[8]": {"tested_on": "cancer cell lines and normal cells", "details": "Li et al., PNAS 2003; cited from earlier work"}}}
{"compound": "CC1(C)CCC2=C(O1)c1ccccc1C(=O)C2=O", "note": "[β-lapachone, reference compound]", "values": [{"measurement": "inhibition of HaCaT cell proliferation (in words)", "setting": "HaCaT cells [1]; HaCaT cells", "result": "inhibited cell proliferation"}, {"measurement": "IC50", "setting": "HaCaT cells [1]; Homo sapiens, HaCaT, read-out: AA in HaCaT Cells IC50 (μM)", "result": 0.7, "unit": "µM"}, {"measurement": "LDH release compared to vehicle control (in words)", "setting": "HaCaT cells [2]", "result": "significant LDH release as compared to vehicle"}, {"measurement": "LDH (mU)", "setting": "HaCaT cells [2]; human, 2 μM", "result": 329, "unit": "mU"}, {"measurement": "IC50", "setting": "[3]", "result": 4, "unit": "µM"}, {"measurement": "IC50", "setting": "[4]", "result": 4, "unit": "µM"}, {"measurement": "IC50", "setting": "[5]", "result": "≤ 1", "unit": "µM"}, {"measurement": "IC50", "setting": "human cancer cell lines", "result": "1 to 10", "unit": "µM"}, {"measurement": "cytotoxic effects on normal human PBMC", "setting": "[6]", "result": "No cytotoxic effects were observed"}, {"measurement": "inhibition of keratinocyte growth in HaCaT model (in words)", "setting": "[7]", "result": "inhibition of keratinocyte growth comparable to the antipsoriatic drug anthralin"}, {"measurement": "induction of apoptosis in cancer versus normal cells", "setting": "[8]", "result": "induces apoptosis only in cancer cell lines and not in normal cells"}]}
